Experiment [1] concerns Leishmania major promastigotes. Description: leishmanicidal activity assay (72 h, microscopic counting). The class given is cell-based. Particulars: for IC50: Leishmania major, read-out: Leishmanicidal activity IC50 ± SD. As for the experimental part:
Leishmania major (DESTO, Pakistan) was cultured in a mixture of NNN-biphasic medium, and normal physiological saline solution. L. major promastigotes were grown on RPMI 1640 medium, supplemented with fetal bovine serum (FBS) (10% heat inactivated). Parasites were centrifuged (at log phase) for 10 min at 2,000 rpm and washed thrice with saline. The final density of fresh culture (10^6 cells/mL) was acquired through dilution of parasites. Sample solution of 1 mg of test compounds was prepared in a mixture 50 μL of DMSO and 950 μL of RPMI media. Fully dissolved compounds were transferred to 96-well plate. The first row of 96-well plate received 180 μL of the medium, while the remaining wells received 100 μL medium. Test compounds (20 μL each) were added into the medium containing wells, followed by serial dilution. The parasite culture (100 μL) was then transferred to each well. Negative controls comprised of only the growth medium, while standard leishmanicidal drugs (amphotericin or pentamidine) were used as positive controls. The plate was then incubated for 72 h at 21–22°C. The inhibitory effect of test compounds on the culture was analyzed microscopically on an improved Neubauer counting chamber. IC50 values were calculated through Ezfit 5.03 Perella Scientific software (USA).

In experiment [2] the target is T1, β-glucuronidase enzyme (E.C. 3.2.1.31, bovine liver) (Bos taurus, UniProt A3KMY8).
T1 sequence (A3KMY8 24-652): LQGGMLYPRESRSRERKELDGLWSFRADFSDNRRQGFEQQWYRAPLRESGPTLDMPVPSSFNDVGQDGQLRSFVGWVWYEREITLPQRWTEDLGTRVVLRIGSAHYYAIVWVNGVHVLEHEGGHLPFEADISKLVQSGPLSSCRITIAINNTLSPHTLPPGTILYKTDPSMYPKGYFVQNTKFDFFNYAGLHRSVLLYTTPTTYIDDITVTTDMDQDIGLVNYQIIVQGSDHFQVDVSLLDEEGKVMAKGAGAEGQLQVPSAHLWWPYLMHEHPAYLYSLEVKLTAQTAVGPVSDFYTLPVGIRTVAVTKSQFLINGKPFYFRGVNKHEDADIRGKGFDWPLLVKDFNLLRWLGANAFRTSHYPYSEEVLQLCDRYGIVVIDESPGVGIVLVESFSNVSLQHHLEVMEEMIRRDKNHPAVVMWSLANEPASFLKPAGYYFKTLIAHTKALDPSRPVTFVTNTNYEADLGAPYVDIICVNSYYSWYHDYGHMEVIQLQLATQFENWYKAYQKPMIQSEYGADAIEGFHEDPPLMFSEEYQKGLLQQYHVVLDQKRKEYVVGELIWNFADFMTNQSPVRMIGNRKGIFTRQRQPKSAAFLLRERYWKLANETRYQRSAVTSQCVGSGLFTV
Description: β-glucuronidase inhibition assay (p-nitrophenyl-β-D-glucuronide, absorbance 405 nm). The class given is biochemical. To be noted: for β-glucuronidase inhibitory activity IC50 ± SD: in vitro, bovine liver enzyme, 37°C, triplicate. On the procedure: The inhibition of β-glucuronidase enzyme (E.C. 3.2.1.31, bovine liver) by test compounds was determined on a spectrophotometer by measuring the absorbance of p-nitrophenol at 405 nm, produced from the substrate. The reaction mixture comprised 185 μL of 0.1 M acetate buffer, and 5 μL of test compound solution, and 10 μL of (1U) enzyme solution in a 96-well plate. The mixture was incubated at 37°C for 30 min. The test compounds were solubilized in DMSO (100%), and 5 μL volume was added in each well (2% of total volume). […] The plates were read on a multiplate reader (SpectraMax plus 384) at 405 nm and 37°C, after addition of 50 μL of 0.4 mM p-nitrophenyl-β-D-glucuronide. All assays were performed in triplicate. IC50 values were calculated through EZ-Fit software (Perrella Scientific Inc., Amherst, MA, USA).

The test system of experiment [3] is HeLa cancer cell line (human cervical carcinoma). As to the kind of experiment: MTT cytotoxicity assay, HeLa. The class given is cell-based. Particulars: 24 hours treatment, read-out: HeLa Cell line IC50 ± SD. On the procedure: (§1) MTT (3-(4,5-dimethyl thiazol-2yl)-2,5-diphenyl tetrazolium bromide) assay was employed to study the cytotoxic activity against HeLa (human cervical carcinoma, provided by Prof. Dr. Anwar Ali Siddiqui from Aga Khan University, Karachi, Pakistan), and mouse fibroblast 3T3 (ATCC® CRL-1658, purchased from American Type Culture Collection, ATCC, Virginia, USA) cell lines. The cells (1 × 10^5 /well) were plated in 0.2 mL of DMEM high glucose medium/well in 96-well plates. The cells were treated for 24 hours with test compounds in the range of 25, 50, 75, 100, and 200 μM concentrations, respectively. For the MTT assay, the medium from the wells was removed carefully after 24 hours treatment. Each well was washed with 1X PBS for 2–3 times, and 200 μL of MTT (5 mg/mL) was added in to media containing wells (1:10). The plates were incubated for 4 hours at 37°C, in a 5% CO2 incubator. After incubation, MTT was removed and 0.1 mL of DMSO was added to each well and mixed by keeping on a stirrer. The presence of viable cells was visualized by the development of purple color due to formation of the formazan crystals. The plates were observed under spectrophotometer (Spectramax) and absorbance was taken at 545 and 570 nm for cancer and normal cell lines, respectively.
A general note: Tetrazolium assays rely on reduction of a dye to a coloured formazan, in cell work by metabolically active cells.

For experiment [4], the system named is 3T3 cell line (mouse fibroblast). Description: MTT cytotoxicity assay, 3T3. Particulars: for IC50: read-out: 3T3 Cell line IC50 ± SD. The class given is cell-based. As for the experimental part: as §1
Experiment [5] relates to progesterone receptor (PR). Set-up: method as in PMID 18515094, PMID 24552459, PMID 11953818. Particulars: mibolerone eliminates PR expression; 5α-dehydrotestosterone reduces PR to basal levels; ref [1]–[4]; cited from earlier work.
Setting [6] is: L. major promastigotes, 72 h at 21–22°C.
[7] abbreviates: Mus musculus, NIH3T3, 24 hours treatment.

Entries after “also recorded” stand apart in the source; their conditions may differ. Read-outs that look alike come from different tables or passages of the source.

Usually IC50 stands for the concentration at which inhibition is half-maximal. With `N=C(N)c1ccc(OCCCCCOc2ccc(C(=N)N)cc2)cc1` [Pentamidine, reference compound], the IC50 in experiment [1] (setting [6]) was determined as 5.09 ± 0.09 µM.
Turning to `CC1CC2=CC(=O)CCC2C2C(O)CC3(C)C(CCC3(C)O)C12` (stereo not drawn) [Compound 8, 11β,17β-Dihydroxy-7α,17α-dimethylestr-4-en-3-one], in experiment [2], the “β-glucuronidase inhibitory activity IC50 ± SD” value is given as “Inactive”. Also, the IC50 is 70.09 ± 0.05 µM in experiment [1] (72 h); 34.1 ± 5.3 µM in experiment [3]; 34.2 ± 5.3 µM in experiment [3] (Homo sapiens, HeLa, 24 h). Besides, in experiment [4] (24 hours treatment), the “3T3 Cell line IC50 ± SD” value was “no cytotoxicity; also recorded: Inactive”.
Consider `CC1C(O)C2=CC(=O)CCC2(O)C2CCC3(C)C(CCC3(C)O)C12` (stereo not drawn) [Compound 4, 6β,10β,17β-Trihydroxy-7α,17α-dimethylestr-4-en-3-one], for which the “β-glucuronidase inhibitory activity IC50 ± SD” value in experiment [2] is recorded as “Inactive”. Moreover, the “Leishmanicidal activity IC50 ± SD” value in experiment [1] (setting [6]) is “Inactive”. Also, the IC50 in experiment [3] (Homo sapiens, HeLa, 24 h) turned out to be 152 ± 2.1 µM; in experiment [4] (setting [7]), 89.4 ± 2.7 µM.
`C[C@@H]1[C@H](O)[C@@H](C)/C=C/C=C/C=C/C=C/C=C/C=C/C=C/[C@H](O[C@@H]2O[C@H](C)[C@@H](O)[C@H](N)[C@@H]2O)C[C@@H]2O[C@](O)(C[C@@H](O)C[C@@H](O)[C@H](O)CC[C@@H](O)C[C@@H](O)CC(=O)O[C@H]1C)C[C@H](O)[C@H]2C(=O)O` [Amphotericin B, reference compound]: the IC50 in experiment [1] (72 h) came out at 0.29 ± 0.05 µM.
`C[C@]12CCC(=O)C[C@@H]1CC[C@@H]1[C@@H]2CC[C@]2(C)[C@@H](O)CC[C@@H]12` [5α-dehydrotestosterone]: the “dose that eliminates / reduces to basal levels progesterone receptor expression” value in experiment [5] was 10 to 100 nM.
Turning to `CC1CC2=CC(=O)CCC2(O)C2CCC3(C)C(CCC3(C)O)C12` (stereo not drawn) [Compound 2, 10β,17β-Dihydroxy-7α,17α-dimethylestr-4-en-3-one], the “β-glucuronidase inhibitory activity IC50 ± SD” value in experiment [2] was “Inactive”. The “Leishmanicidal activity IC50 ± SD” value in experiment [1] (setting [6]) is on record as “Inactive”. Moreover, the IC50 came to 46.5 ± 5.4 µM in experiment [3] (Homo sapiens, HeLa, 24 h) and 43.3 ± 7.7 µM in experiment [4] (setting [7]).
On to `C[C@@H]1CC2=CC(=O)CC[C@@H]2[C@H]2CC[C@@]3(C)[C@@H](CC[C@]3(C)O)[C@@H]21` [Compound 1, 17β-Hydroxy-7α,17α-dimethylestr-4-en-3-one, reference compound], for which the IC50 in experiment [2] is 43 ± 1.24 µM; in experiment [1] (72 h), 29.6 ± 0.88 µM; in experiment [3] (Homo sapiens, HeLa, 24 h) it was 35.7 ± 4.46 µM; in experiment [4] (setting [7]), 46.3 ± 11.7 µM. Further, the “dose that eliminates / reduces to basal levels progesterone receptor expression” value in experiment [5] is 1 nM.
Consider `N.N.[Cl][Pt][Cl]` [Cisplatin, reference compound], for which the IC50 in experiment [3] was determined as 38.5 ± 1.8 µM; in experiment [4] (24 hours treatment) it was 39.7 ± 2.7 µM.
As to `C[C@H]1[C@@H]2[C@H](CC[C@@]3(C)[C@H]2CC[C@]3(C)O)[C@H]2CCC(=O)C=C2[C@@H]1O` [Compound 3, 6β,17β-Dihydroxy-7α,17α-dimethylestr-4-en-3-one], the “β-glucuronidase inhibitory activity IC50 ± SD” value in experiment [2] is reported as “Inactive”. In addition, the half-maximal inhibitory concentration (IC50) in experiment [1] (72 h) worked out at 79.09 ± 0.06 µM; in experiment [3] (Homo sapiens, HeLa, 24 h), 108 ± 4 µM; in experiment [4] (setting [7]), 65.6 ± 2.5 µM.
